Assay results reported in the NIST ThermoML archive (doi:10.1021/je200305n).
Numbers after ± are expanded uncertainties.

Settings: Liquid

SMILES	vapor or sublimation pressure (329 K) [kPa]	vapor or sublimation pressure (337.42 K) [kPa]
CC(C)=O [acetone]	100 ± 1.3	
CO [methanol]		100 ± 1.3
